Experimental data: patent US12226449B2, “Materials and methods for the prevention of rheumatoid arthritis” (The University of Toledo, priority 2018, dated 2025)
“Also recorded” adds a separate entry of the source.

Legend:
human PBMCs [1] = test: T cell polarization of PBMCs by flow cytometry (CD4, CD366, IL-17, CD8, CD69); type: cell-based
Procedure: Cells were plated with 14-3-3ζ protein in a 96-well plate for 14 days at 37° C. in complete RPMI culture medium. Phytohemagglutinin (PHA) was used as a positive control. 10 μl MTT was added at a concentration of 5 mg/mL, and the plate was further incubated at 37° C. in the dark for 3 hours. Supernatant was then removed, and 100 μL DMSO was added for another hour before reading the absorbance at 570 nm using FLUOstar Omega microplate reader (BMG Labtech). For T cell differentiation, PBMCs were incubated with 1 μg/ml of 14-3-3ζ for 7 days followed by either the cellular staining for FACS analysis or ELISPOT as per manufacture's protocol. […] PBMCs incubated with 14-3-3ζ for 7 days at 37° C. were fixed in 2% paraformaldehyde for an hour, and washed with PBS. […] For surface staining, cells were stained in 50 μL PBS with 5 μl per million cells antibody for 30 minutes in the dark on ice. For intracellular staining, cells were permeabilized with Triton for 10-15 min. After staining, cells were washed with PBS and resuspended in 1 mL PBS for analysis. The following antibodies from Biolegend Inc. were used: […] Cells were sorted at FACSCanto II system (BD Biosciences) and analyzed using FlowJo software (version 10). A gate was created around an initial population of cells in the FSC-SSC plot, and this population of cells was further analyzed for CD4, CD366, and IL-17 expression. Unstained and isotype labelled cells were used as a control for setting the gates.

human PBMCs [2] = test: as above; type: cell-based; details: incubated with 14-3-3ζ, 3 d
human PBMCs [3] = test: ELISPOT assay of IFN-γ and IL-17 secreting cells; type: cell-based
Procedure: Cells were plated with 14-3-3ζ protein in a 96-well plate for 14 days at 37° C. in complete RPMI culture medium. Phytohemagglutinin (PHA) was used as a positive control. 10 μl MTT was added at a concentration of 5 mg/mL, and the plate was further incubated at 37° C. in the dark for 3 hours. Supernatant was then removed, and 100 μL DMSO was added for another hour before reading the absorbance at 570 nm using FLUOstar Omega microplate reader (BMG Labtech). For T cell differentiation, PBMCs were incubated with 1 μg/ml of 14-3-3ζ for 7 days followed by either the cellular staining for FACS analysis or ELISPOT as per manufacture's protocol. For testing the effect of drugs, prednisolone, prednisone, as well as TJU103, were used at 1 μg/ml concentration and cyclophosphamide was used at 0.1 μg/ml concentration.
The protocol was adopted from Immunospot kit from Cellular Technology Limited. In short, PBMCs incubated with 14-3-3ζ for 7 days were plated on the antibody coated ELISPOT plates. About 100,000 cells/well were added and incubated for 2 days at 37° C. followed by the developing protocol. Plates were read with a Quantihub ELISPOT plate reader and manually counted.

14-3-3ζ KO rats = test: Pristane-induced arthritis in 14-3-3ζ KO rats, 14-3-3ζ immunization; type: in vivo, rat; details: IFA+14-3-3ζ vs IFA, days post-pristane
Description: FIGS. 16A-16B, to determine whether 14-3-3ζ is sufficient for RA suppression, 14-3-3ζ KO rats that are more susceptible to RA were used.

rats = test: Immunization of rats with IFA and 14-3-3ζ without pristane; type: in vivo, rat; details: pristane absent
human PBMCs [4] = test: ELISA of secreted (accumulated) cytokines of PBMCs; type: cell-based; details: PBMC in the presence of 14-3-3ζ
Lewis rats = test: Pristane-induced arthritis (PIA) model, immunization with 14-3-3ζ in IFA; type: in vivo, rat
Procedure: FIG. 12A depicts the process used for this example for evaluating the prevention of RA in rats. All animals were injected with 150 μl of Pristane subcutaneously at the root of the tail followed by injecting either 1 mg/kg of IFA mixed with 14-3-3ζ protein or IFA alone the next day. Additional injection of either IFA alone or mixed with 14-3-3ζ proteins were given after one week. Animals were evaluated twice every week. Each joint (20 per paw, total of 80 per animal) was scored for inflammation. Both male and female rats were equally divided (n=6-8) between IFA and 14-3-3ζ treated sets. Rats were euthanized at 43 d and blood was collected for analysis.
Exposure to 14-3-3ζ generates a strong immune response in Lewis rats. Due to highly reproducible induction of severe inflammation and chronic arthritis, PIA is a one of the standard models to investigate rheumatoid arthritis an autoimmune disease. Intradermal injection of Pristane leads to a strong T-cell infiltration, followed by a cytokine increase as well as visual manifestation of joint inflammation, prominently observed in the Lewis rats. To test the antigenic role of 14-3-3ζ in vivo, purified 14-3-3ζ protein was injected along with IFA one day after the animals were treated with Pristane (FIG. 12A).
The animals were immunized with either IFA alone, or mixed with 14-3-3ζ (IFA+Z, 1 mg/kg) at 1 and 7 d-post pristine injection. Animals were monitored and scored for RA.

[5] = test system: PBMC isolated from normal Lewis rats; test: Proliferation of rat PBMC incubated ex vivo; type: cell-based; details: incubated with 14-3-3ζ ex vivo
human PBMCs [6] = test: PBMC proliferation, MTT assay; type: cell-based; details: purified 14-3-3ζ 300 ng/ml and 1000 ng/ml, by 8 d; PHA 1% positive control
Procedure: Blood from healthy donors was collected as per the approved IRB protocol. The protocol for isolation of PBMCs was previously reported. In short, whole blood was diluted with an equal volume of RPMI before layering on Ficoll-Paque PLUS in a 15 mL tube. Tubes were then centrifuged for 25 minutes with the brakes off at 950 g. PBMCs were collected from the layer between the plasma and Ficoll liquid. PBMCs were then washed twice with RPMI, with 7 min spins at 350×g to pellet the cells. Finally, cells were resuspended in complete RPMI before counting and plating. […] Phytohemagglutinin (PHA) was used as a positive control. 10 μl MTT was added at a concentration of 5 mg/mL, and the plate was further incubated at 37° C. in the dark for 3 hours. Supernatant was then removed, and 100 μL DMSO was added for another hour before reading the absorbance at 570 nm using FLUOstar Omega microplate reader (BMG Labtech). For T cell differentiation, PBMCs were incubated with 1 μg/ml of 14-3-3ζ for 7 days followed by either the cellular staining for FACS analysis or ELISPOT as per manufacture's protocol.

[7] = PIA treated Lewis rats immunized with 14-3-3ζ

“14-3-3ζ: human 14-3-3ζ protein, SEQ ID NO: 1, purified from E. coli; injected mixed with IFA in rats” was tested, and the “CD8+ cells (total number or activation)” value (human PBMCs [1]; 14-3-3ζ treated PBMC) was “No significant increase; also recorded: No change; also recorded: no significant effect”, the “total number of CD4+ cells” value (human PBMCs [1]; 14-3-3ζ treated PBMC, 7 d) was “no significant change” and the “CD4 cells positive for both CD366 and IL-17 (minor population <1%)” value (human PBMCs [1]; presence of 14-3-3ζ) was “unchanged”. The “CD366 or IL-17 positive CD4 cells (Th1, Th17)” value (human PBMCs [1]; protein 1 μg/ml, 7 d) was “more CD366 or IL-17 positive CD4 cells; also recorded: significant increase”, the “CD69 expression on T cells (CD4 cells)” value (human PBMCs [2]) was “increases CD69 expression; also recorded: increased; also recorded: strong impact” and the “level of IFN-γ (number of IFN-γ colonies) compared with 14-3-3ε” value (human PBMCs [3]; FIG. 6B and FIG. 12L) was “significantly more than 14-3-3ε”. For the same substance, the “number of IFN-γ and IL-17 secreting cells” value (human PBMCs [3]; PBMC treated with protein for 7 d) was “robust response; also recorded: robust increase”, the RA score (14-3-3ζ KO rats) was “suppressed the RA” and the body weight (14-3-3ζ KO rats) was “gain in body weights”. For the same substance, the “induction of RA pathology (pathogenicity)” value (rats; IFA and 14-3-3ζ) was “no significant induction of RA pathology”, the “immunogenicity: 14-3-3ζ antibody generation and IL-17 induction” value (rats) was 14-3-3ζ antibody generation and IL-17 induction and the IL-6 level (human PBMCs [4]) was “no significant effect”. The “accumulated secreted IL-17 (IL-17A)” value (human PBMCs [4]) was “significant increased accumulation”, the “levels of IL-10 or IL-12” value (human PBMCs [4]) was “no effect” and the “joint inflammation / arthritis (RA) score” value (Lewis rats; Lewis rats, pristane, 14-3-3ζ 1 mg/kg mixed with IFA at 1 and 7 d post pristane, compared to IFA alone, 1 mg/kg) was “protection against rheumatoid arthritis; also recorded: protection against the arthritis; also recorded: significantly less inflammation of joints; also recorded: significant reduction of RA scores; also recorded: absent; also recorded: relatively stronger inflammation in IFA treatment compared to 14-3-3ζ treatment; also recorded: no sign of arthritis; also recorded: prevents the development of RA”. For the same substance, the “increase in the level of IFN-γ in the circulating sera” value (Lewis rats; [7]) was 10 to 15 folds, the “increase in the level of IL-17 in the circulating sera” value (Lewis rats; [7]) was 10 to 15 folds and the “increase in the level of anti-14-3-3ζ IgG in the circulating sera” value (Lewis rats; [7]) was 10 to 15 folds. For the same substance, the “anti-14-3-3ζ antibody level (sera, synovial fluid)” value (Lewis rats; compared to IFA alone) was “significant production of anti-14-3-3ζ IgG; also recorded: significantly higher levels; also recorded: increased 14-3-3ζ antibody levels”, the “circulating (sera) IFN-γ level” value (Lewis rats; compared to IFA alone) was “significantly higher levels; also recorded: much higher levels” and the “circulating IL-17 level” value (Lewis rats; compared to IFA alone) was “significantly higher levels”. For the same substance, the “H&E stain: immune cell infiltration and tissue damage” value (Lewis rats; compared to IFA treated animal) was “lesser sign of inflammation and damage”, the “rat PBMC proliferation” value [5] was “increased proliferation” and the “PBMC proliferation (MTT assay)” value (human PBMCs [6]) was “promoted; also recorded: strong proliferation induction; also recorded: comparable and dose-dependent effect”.
